Experimental data from US10947271B2, “Antibacterial agents” (THE UNIVERSITY OF QUEENSLAND, priority 2014, dated 2021).

How the values were obtained:
[1] = tested on: MRSA (Strain ATCC 43300); experiment: Murine thigh infection model (MRSA); type: in vivo, Staphylococcus aureus; details: neutropenic CD1 mice
Description: Summary: Adult (8 week old) female CD1 mice were made neutropenic by two injections of cyclophosphamide 4 days and 1 day prior to infection. An inoculum of 10^5 cfu MRSA (Strain ATCC 43300) was injected intramuscularly into both left and right thighs of all mice. […] After an additional two hours, a 50 μL sample of blood was obtained from the tail bleed to analyse for presence of antibiotic compound. […] Thighs were then removed, weighed and homogenised in a fixed volume of saline. The homogenate solution was filtered, diluted and seeded onto agar plates, which were incubated overnight at 37° C. Colony counts were used to establish the cfu in the thigh homogenates, the cfu/thigh, and the cfu/g of thigh.
Compound preparation: Cyclophosphamide monohydrate (Sigma) was dissolved in sterile saline to a concentration of 30 mg/mL. Likewise, vancomycin (Sigma) and MCC compounds were also dissolved in sterile saline to a final concentration of 60 mg/mL and 18.5 mg/mL respectively. All compounds were prepared in low binding Eppendorf tubes and kept at −20° C. until used.
In vivo experimental assay: Eight week old female outbred CD1 mice (UQBR-AIBN) were rendered neutropenic by injecting two doses of cyclophosphamide intraperitoneally 4 days (150 mg/kg) and 1 day (100 mg/kg) prior to experimental infection. The infection model using MRSA was established by intramuscular injection of 50 μL of early-log-phase bacterial MRSA suspension (around 2×10^6 cfu/mL) in saline into both thigh muscles. […] Untreated animals received equivalent volume of saline (Baxter). The mice were monitored for signs of normal behaviour (i.e. grooming, eating, drinking, sleeping, and alertness) during and following dosing. Two hours after saline/antibiotic treatment, 0.05 mL of blood was collected by tail incision. 24 hours after MRSA infection, mice were euthanized and blood collected from the heart by cardiac puncture (saline group) or by tail incision (Vancomycin and MCC compound treated groups) as outlined in FIG. 1. For each mouse, both thighs were collected aseptically by cutting the leg at the hip and knee, placed in 10 mL of cold sterile saline and the individual weight of each thigh recorded.
Preparation of injectable MRSA solution: An MRSA subculture bacterial isolate (ATCC43300) was taken from the storage at −80° C. and freshly seeded on agar plates for overnight (O/N) growth. From the O/N culture preparation, a single colony was diluted into 10-12 mL of Mueller Hinton broth (MHB) and incubated O/N at 37° C. A log-phase subculture was obtained by adding 100 μL of O/N subculture in 10 mL MHB and incubated for a further 2-3 hours. Finally, the OD600 value of the bacterial suspension was determined and the colony forming units per millilitre (cfu/mL) extrapolated. A full dilution of the bacterial cell suspension in saline was achieved by washing (3220×g for 10 min) and the OD600 in saline determined. The suspension was then diluted out accordingly in order to achieve a 2×10^6 cfu/mL solution (10^5 cfu in 50 μL/thigh).
Thus, 10 μL of the injectable MRSA suspension was diluted down to 10-1000 fold, each dilution plated out onto agar plates and incubated at 37° C. for 24 hours.
Thigh homogenates and CFU determination: Thighs were homogenized at 20,000 rpm for 15 seconds using a Polytron MR2500E using a […] probe (all Kinematica).

[2] = tested on: Streptococcus pneumoniae MDR ATCC 700677; experiment: MIC assay, S. pneumoniae MDR ATCC 700677; type: cell-based; details: 24 h incubation, visual reading
Procedure, shortened: (§1)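 Overnight MHB cultures at 37° C were diluted 40-fold and grown 2-3 hrs to mid-log, then added at 5×10e5 CFU/mL to twofold compound dilutions (8 to 0.003 μg/ml). Plates were incubated 24 h at 37° C and MIC scored by eye.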

[3] = tested on: Staphylococcus aureus MRSA ATCC 43300; experiment: MIC assay, S. aureus MRSA ATCC 43300; type: cell-based; details: 24 h incubation, visual reading
Procedure, shortened: as §1

[4] = tested on: Enterococcus faecium MDR Van A ATCC 51559; experiment: MIC assay, E. faecium MDR Van A ATCC 51559; type: cell-based; details: 24 h incubation, visual reading
Procedure, shortened: as §1

[5] = single subcutaneous dose 10 mg/kg
[6] = single subcutaneous dose 25 mg/kg

SMILES | Average Reduction log Δcfu MRSA/thigh after 26 h ([1]; single subcutaneous dose 50 mg/kg) | Average Reduction log Δcfu MRSA/thigh after 26 h ([1]; single subcutaneous dose 5 mg/kg) | Average Reduction log Δcfu MRSA/thigh after 26 h [1, 5] | Average Reduction log Δcfu MRSA/thigh after 26 h [1, 6] | Minimum Inhibitory Concentration (MIC) S. pneumoniae ATCC 700677 [2] | Minimum Inhibitory Concentration (MIC) Staph. aureus ATCC43300 [3] | Minimum Inhibitory Concentration (MIC) E. faecium ATCC51559 [4]
CCCCCCCCCC(=O)N[C@@H](Cc1c[nH]c2ccccc12)C(=O)N[C@H](CC(N)=O)C(=O)N[C@@H](CC(=O)O)C(=O)N[C@@H]1C(=O)NCC(=O)N[C@@H](CCCN)C(=O)N[C@@H](CC(=O)O)C(=O)N[C@H](C)C(=O)N[C@@H](CC(=O)O)C(=O)NCC(=O)N[C@H](CO)C(=O)N[C@@H]([C@H](C)CC(=O)O)C(=O)N[C@@H](CC(=O)c2ccccc2N)C(=O)O[C@@H]1C [Daptomycin, reference compound] | xxx (xxx = 4-6) | – | – | – | – | – | –
CCCCCCCCCCC(=O)N[C@@H](CCCCN)C(=O)N[C@@H](CCCCN)C(=O)N[C@@H](CCCCNC(=O)[C@H]1NC(=O)[C@H]2NC(=O)[C@H](NC(=O)[C@@H]3NC(=O)[C@H](CC(N)=O)NC(=O)[C@H](NC(=O)[C@@H](CC(C)C)NC)[C@H](O)c4ccc(c(Cl)c4)Oc4cc3cc(c4O[C@@H]3O[C@H](CO)[C@@H](O)[C@H](O)[C@H]3O[C@H]3C[C@](C)(N)[C@H](O)[C@H](C)O3)Oc3ccc(cc3Cl)[C@H]2O)c2ccc(O)c(c2)-c2c(O)cc(O)cc21)C(=O)O [MCC_000174] | – | xxx (xxx = 4-6) | xxx (xxx = 4-6) | xxx (xxx = 4-6) | xxxx (xxxx = 0.01-<0.1) | xxxx (xxxx = 0.01-<0.1) | x (x = >4)
CNC(=O)[C@H](CCCCNC(=O)[C@H]1NC(=O)[C@H]2NC(=O)[C@H](NC(=O)[C@@H]3NC(=O)[C@H](CC(N)=O)NC(=O)[C@H](NC(=O)[C@@H](CC(C)C)NC)[C@H](O)c4ccc(c(Cl)c4)Oc4cc3cc(c4O[C@@H]3O[C@H](CO)[C@@H](O)[C@H](O)[C@H]3O[C@H]3C[C@](C)(N)[C@H](O)[C@H](C)O3)Oc3ccc(cc3Cl)[C@H]2O)c2ccc(O)c(c2)-c2c(O)cc(O)cc21)NC(=O)[C@H](CCCCN)NC(=O)[C@H](CCCCN)NC(=O)[C@H](CCCCNC(=O)c1ccc(Oc2ccccc2)cc1)NC(=O)c1ccc(Oc2ccccc2)cc1 [MCC_000310] | – | – | – | x (x = 0-2) | xxxxx (xxxxx = <0.01) | xxxxx (xxxxx = <0.01) | xxx (xxx = 0.1-<1)
CCCCCCCCCCC(=O)N[C@@H](CCCCN)C(=O)N[C@@H](CCCCN)C(=O)NCCCNC(=O)[C@H]1NC(=O)[C@H]2NC(=O)[C@H](NC(=O)[C@@H]3NC(=O)[C@H](CC(N)=O)NC(=O)[C@H](NC(=O)[C@@H](CC(C)C)NC)[C@H](O)c4ccc(c(Cl)c4)Oc4cc3cc(c4O[C@@H]3O[C@H](CO)[C@@H](O)[C@H](O)[C@H]3O[C@H]3C[C@](C)(N)[C@H](O)[C@H](C)O3)Oc3ccc(cc3Cl)[C@H]2O)c2ccc(O)c(c2)-c2c(O)cc(O)cc21 [MCC_000344] | – | – | – | xxx (xxx = 4-6) | xxxx (xxxx = 0.01-<0.1) | xxxx (xxxx = 0.01-<0.1) | xx (xx = 1-4)
CCCCCCCCCCCC(=O)N[C@@H](CCCCN)C(=O)N[C@@H](CCCCN)C(=O)N[C@@H](CCCCNC(=O)[C@H]1NC(=O)[C@H]2NC(=O)[C@H](NC(=O)[C@@H]3NC(=O)[C@H](CC(N)=O)NC(=O)[C@H](NC(=O)[C@@H](CC(C)C)NC)[C@H](O)c4ccc(c(Cl)c4)Oc4cc3cc(c4O[C@@H]3O[C@H](CO)[C@@H](O)[C@H](O)[C@H]3O[C@H]3C[C@](C)(N)[C@H](O)[C@H](C)O3)Oc3ccc(cc3Cl)[C@H]2O)c2ccc(O)c(c2)-c2c(O)cc(O)cc21)C(=O)O [MCC_000347] | – | – | xxxx (xxxx = >6) | – | xxxx (xxxx = 0.01-<0.1) | xxxxx (xxxxx = <0.01) | xx (xx = 1-4)
CCCCCCCCCCC(=O)NC(CCCCN)C(=O)NC(CCCCN)C(=O)NC(CCCCNC(=O)C1NC(=O)C2NC(=O)C(NC(=O)C3NC(=O)C(CC(N)=O)NC(=O)C(NC(=O)C(CC(C)C)NC)C(O)c4ccc(c(Cl)c4)Oc4cc3cc(c4OC3OC(CO)C(O)C(O)C3OC3CC(C)(N)C(O)C(C)O3)Oc3ccc(cc3Cl)C2O)c2ccc(O)c(c2)-c2c(O)cc(O)cc21)C(N)=O (stereo not shown) [MCC_000455] | – | – | – | xxx (xxx = 4-6) | xxxxx (xxxxx = <0.01) | xxxxx (xxxxx = <0.01) | xxx (xxx = 0.1-<1)
CCCCCCCCCC(=O)N[C@@H](CCCCN)C(=O)N[C@@H](CCCCN)C(=O)NCCCNC(=O)[C@H]1NC(=O)[C@H]2NC(=O)[C@H](NC(=O)[C@@H]3NC(=O)[C@H](CC(N)=O)NC(=O)[C@H](NC(=O)[C@@H](CC(C)C)NC)[C@H](O)c4ccc(c(Cl)c4)Oc4cc3cc(c4O[C@@H]3O[C@H](CO)[C@@H](O)[C@H](O)[C@H]3O[C@H]3C[C@](C)(N)[C@H](O)[C@H](C)O3)Oc3ccc(cc3Cl)[C@H]2O)c2ccc(O)c(c2)-c2c(O)cc(O)cc21 [MCC_005084] | – | – | xxx (xxx = 4-6) | – | xxxx (xxxx = 0.01-<0.1) | xxxx (xxxx = 0.01-<0.1) | xx (xx = 1-4)
CCCCCCCCCC(=O)N[C@@H](CCCCN)C(=O)NCCNC(=O)[C@H]1NC(=O)[C@H]2NC(=O)[C@H](NC(=O)[C@@H]3NC(=O)[C@H](CC(N)=O)NC(=O)[C@H](NC(=O)[C@@H](CC(C)C)NC)[C@H](O)c4ccc(c(Cl)c4)Oc4cc3cc(c4O[C@@H]3O[C@H](CO)[C@@H](O)[C@H](O)[C@H]3O[C@H]3C[C@](C)(N)[C@H](O)[C@H](C)O3)Oc3ccc(cc3Cl)[C@H]2O)c2ccc(O)c(c2)-c2c(O)cc(O)cc21 [MCC_005162] | – | – | xxx (xxx = 4-6) | – | xxxx (xxxx = 0.01-<0.1) | xxxx (xxxx = 0.01-<0.1) | xx (xx = 1-4)
CCCCCCCCC(=O)N[C@@H](CCCCN)C(=O)NCCCNC(=O)[C@H]1NC(=O)[C@H]2NC(=O)[C@H](NC(=O)[C@@H]3NC(=O)[C@H](CC(N)=O)NC(=O)[C@H](NC(=O)[C@@H](CC(C)C)NC)[C@H](O)c4ccc(c(Cl)c4)Oc4cc3cc(c4O[C@@H]3O[C@H](CO)[C@@H](O)[C@H](O)[C@H]3O[C@H]3C[C@](C)(N)[C@H](O)[C@H](C)O3)Oc3ccc(cc3Cl)[C@H]2O)c2ccc(O)c(c2)-c2c(O)cc(O)cc21 [MCC_005203] | – | – | xxx (xxx = 4-6) | – | – | – | –
CCCCCCCCCC(=O)N[C@@H](CCCNC(=N)N)C(=O)N[C@@H](CCCCNC(=O)[C@H]1NC(=O)[C@H]2NC(=O)[C@H](NC(=O)[C@@H]3NC(=O)[C@H](CC(N)=O)NC(=O)[C@H](NC(=O)[C@@H](CC(C)C)NC)[C@H](O)c4ccc(c(Cl)c4)Oc4cc3cc(c4O[C@@H]3O[C@H](CO)[C@@H](O)[C@H](O)[C@H]3O[C@H]3C[C@](C)(N)[C@H](O)[C@H](C)O3)Oc3ccc(cc3Cl)[C@H]2O)c2ccc(O)c(c2)-c2c(O)cc(O)cc21)C(=O)O [MCC_005530] | – | – | xxx (xxx = 4-6) | – | – | – | –
CCCCCCCCC(=O)NC(CCCNC(=N)N)C(=O)NCCCNC(=O)C1NC(=O)C2NC(=O)C(NC(=O)C3NC(=O)C(CC(N)=O)NC(=O)C(NC(=O)C(CC(C)C)NC)C(O)c4ccc(c(Cl)c4)Oc4cc3cc(c4OC3OC(CO)C(O)C(O)C3OC3CC(C)(N)C(O)C(C)O3)Oc3ccc(cc3Cl)C2O)c2ccc(O)c(c2)-c2c(O)cc(O)cc21 (stereo not shown) [MCC_007336] | – | – | xxxx (xxxx = >6) | – | – | – | –
